Source: US20180071367A1, “METHODS OF TREATING COGNITIVE IMPAIRMENTS OR DYSFUNCTION” (Oxeia Biopharmaceuticals, Inc., priority 2015, published 2018)
Where no end group is shown, it is not given here. The star is where a group is joined. Octanoyl = CCCCCCCC(=O)*

Key:
[1] = system: oxidative burst in inflammatory cells; test: Oxidative burst (ROS) in inflammatory cells from brain tissue after mild brain injury (controlled cortical impact); assay type: in vivo; details: C57/B6 mice, mild BI by controlled cortical impactor, subcutaneous treatment, leukocytes isolated from brain tissue, DHR 123 flow cytometry, compared to mBI
Protocol: Ghrelin variant administration reduces oxidative burst in inflammatory cells following mild BI. Since no well-accepted animal model exists for concussions, a very small cerebral lesion that closely mimics mild BI is used as a model of mild BI. C57/B6 mice anesthetized with 5% isoflurane in oxygen (1.7 L/min) are given 0.3 mg/kg buprenorphine subcutaneously for analgesia prior to infliction of the mild brain injury. Anesthesia is assessed by paw pinch reflex. After creating a burr hole through the dura with a dental drill, a lesion using a controlled cortical impactor (CCI) is used to create injury 1 mm lateral and posterior to the bregma (5.0 mm/sec at a depth of 1.0 mm).
Animals are separated into three treatment groups: 1) Sham, 2) mild BI, and 3) mild BI plus ghrelin variant. A variety of doses can be tested depending upon the particular ghrelin variant. For example, 1 to 50 μg at one or more time points. As one example, treatment with subcutaneous ghrelin variant: 1 dose of 10 μg following mild BI and additional dose 10 μg 1 hour after. […] The fluorescence is then measured (AFU), higher intensity means greater oxidative burst and, therefore greater concentration or amount of ROS. […] Oxidative burst, which is a marker for ROS, can be measured by respiratory burst using flow cytometry (e.g., FL1 channel with 488-nm laser).

GHS-R = GHS-R (Homo sapiens, UniProt Q92847); test: GHS-R antagonist activity, cell based assay (Table 3); details: GHS-R antagonist activity in a cell based assay
Chain of GHS-R (Q92847 whole entry): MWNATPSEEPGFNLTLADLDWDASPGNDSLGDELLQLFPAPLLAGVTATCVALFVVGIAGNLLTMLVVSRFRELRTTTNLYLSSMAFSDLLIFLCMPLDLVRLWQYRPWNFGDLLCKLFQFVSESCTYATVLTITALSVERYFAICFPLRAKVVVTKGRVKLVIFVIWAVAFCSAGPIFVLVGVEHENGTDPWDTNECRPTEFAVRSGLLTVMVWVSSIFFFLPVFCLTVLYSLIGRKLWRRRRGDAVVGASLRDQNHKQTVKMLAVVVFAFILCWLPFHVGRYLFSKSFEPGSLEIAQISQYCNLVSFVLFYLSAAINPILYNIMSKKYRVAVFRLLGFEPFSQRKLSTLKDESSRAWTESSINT

Row | Molecule | oxidative burst in inflammatory cells following mBI, quantified by arbitrary fluorescence unit (AFU) [1] | Ki (GHS-R) [nM]
1 | ghrelin (GSS(Octanoyl)FLSPEHQRVQQRKESKKPPAKLQPR) | reduced the oxidative burst compared to mBI | –
2 | CCN(CC)CCCS(=O)(=O)N[C@H](CCc1ccccc1)c1nc(-c2cncn2C)n[nH]1 [Compound 135] | – | < 100
